Results from US8815865B2, “Substituted 4-hydroxypyrimidine-5-carboxamides” (Merck Sharp & Dohme Corp., priority 2009, dated 2014).

Assays:
PHD2 = molecular target: T1, PHD2 (Homo sapiens, UniProt Q9GZT9); assay: PHD2 / HIF-1α peptide time resolved fluorescence inhibition assay; type: biochemical
T1 construct: FLAG-tagged full length PHD2 expressed in and purified from baculovirus-infected Sf9 cells; FLAG; made in house; host or cells: baculovirus-infected Sf9 cells
Experimental: To each well of a 96-well plate was added 1 μL of test compound in DMSO and 20 μl of assay buffer (50 mM Tris pH 7.4/0.01% Tween-20/0.1 mg/ml bovine serum albumin/10 μM ferrous sulfate/1 mM sodium ascorbate/20 μg/ml catalase) containing 0.15 μg/ml FLAG-tagged full length PHD2 expressed in and purified from baculovirus-infected Sf9 cells. After a 30 min preincubation at room temperature, the enzymatic reactions were initiated by the addition of 4 μL of substrates (final concentrations of 0.2 μM 2-oxoglutarate and 0.5 μM HIF-1α peptide biotinyl-DLDLEMLAPYIPMDDDFQL). After 2 hr at room temperature, the reactions were terminated and signals were developed by the addition of a 25 μL quench/detection mix to a final concentration of 1 mM ortho-phenanthroline, 0.1 mM EDTA, 0.5 nM anti-(His)6 LANCE reagent (Perkin-Elmer Life Sciences), 100 nM AF647-labeled streptavidin (Invitrogen), and 2 μg/ml (His)6-VHL complex (S. Tan (2001) Protein Expr. Purif. 21, 224-234). The ratio of time resolved fluorescence signals at 665 and 620 nm was determined, and percent inhibition was calculated relative to an uninhibited control sample run in parallel.

[1] = Pharmacokinetics after intravenous dosing in dogs (plasma concentrations by LC-MS/MS); type: in vivo, dogs (beagles); details: dog (beagle), 0.5 mg/kg intravenously
Experimental: The pharmacokinetics of Example 1 (E-1) was evaluated, and compared to that of Example 163 and Example 190 both disclosed in International PCT Application, No. PCT/US09/036,501, filed Mar. 9, 2009. Compounds were formulated in a 1:1 solution (by volume) of PEG200: water and dosed at 0.5 mg/kg of body weight. The formulation was dosed intravenously in 2 dogs (beagles), and blood was drawn at the following time points (hours) 0.08, 0.25, 0.5, 1, 2, 4, 6, 8, 24. The plasma concentrations shown in the table below were determined by protein precipitation followed by liquid chromatography—tandem mass spectrometry analysis.

T1 sequence (Q9GZT9 whole entry): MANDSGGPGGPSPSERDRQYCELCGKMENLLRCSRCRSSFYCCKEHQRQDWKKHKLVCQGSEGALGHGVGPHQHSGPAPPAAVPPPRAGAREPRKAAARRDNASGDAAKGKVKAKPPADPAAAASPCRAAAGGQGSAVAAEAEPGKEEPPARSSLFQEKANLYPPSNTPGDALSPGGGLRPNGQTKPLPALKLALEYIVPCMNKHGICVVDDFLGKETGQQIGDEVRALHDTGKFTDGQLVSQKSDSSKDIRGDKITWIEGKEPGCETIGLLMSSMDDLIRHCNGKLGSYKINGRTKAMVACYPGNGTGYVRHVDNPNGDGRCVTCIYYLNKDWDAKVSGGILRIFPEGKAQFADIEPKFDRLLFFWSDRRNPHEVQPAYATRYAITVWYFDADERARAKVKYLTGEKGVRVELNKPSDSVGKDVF

COc1ccc(C(NC(=O)c2cnc(-c3cccnn3)nc2O)C2CCOCC2)cn1 (single isomer, unassigned) [Example 1, (R)- or (S)-4-Hydroxy-N-[(6-methoxypyridin-3-yl)(tetrahydro-2H-pyran-4-yl)methyl]-2-pyridazin-3-ylpyrimidine-5-carboxamide]
IC50, inhibition of the interaction between PHD2 and a HIF peptide (PHD2; range printed in mixed units (nanomolar to micromolar)): 0.1 to 10000 nM | IC50 (PHD2; read-out: PHD2 binding activity expressed as IC50): ≤ 10 nM | MRT [1]: 7.93 h | clearance [1]: 1.35 mL/min/kg | concentration at 0.08 h ([1]; PEG200:water 1:1, time 0.08 hours): 2230 nM | half-life ([1]; read-out: T ½ (converted)): 6.07 h | concentration at 0.25 h ([1]; time 0.25 hours): 2060 nM | concentration at 0.5 h ([1]; time 0.50 hours): 1960 nM | concentration at 1 h ([1]; time 1.00 hours): 1660 nM | concentration at 2 h ([1]; time 2.00 hours): 1390 nM | concentration at 4 h ([1]; time 4.00 hours): 1320 nM | concentration at 6 h ([1]; time 6.00 hours): 917 nM | concentration at 8 h ([1]; time 8.00 hours): 504 nM | concentration at 24 h ([1]; time 24.00 hours): 100 nM
